Data published in patent publication US9864847B2, “Method for predicting the solubility of a molecule in a polymer at a given temperature” (priority 2014, dated 2018).

Key:
[1] = indomethacin / PVP-K30 at 25° C.; cited from earlier work
[2] = 25° C.
Procedure: The drug indomethacin and the polymer PVP-K30 were taken in various ratios, corresponding to weight percentages of indomethacin in the mixture of 2.5%, 10%, 15%, and 20%. DSC was performed on the pure indomethacin and pure PVP-K30, and the specific heat for each was obtained as a function of the temperature over the range of 220K to 310K. The DSC instrument provided reliable data as low as 220K, which was taken as Tmin. Solid solutions were formed by mixing the drug and polymer in a mortar and pestle, allowing them to stand at 130° C. (403 K) for 5 days, then allowing them to cool to room temperature. DSC was also performed to determine the specific heat of the solid solutions from 220K to 300K. All DSC was performed using a pinhole in the lid and was thus considered open pan, so the specific heats were considered to be obtained at constant pressure. All heating and cooling rates were 5° C. per minute. […]
The entire procedure was repeated for each indomethacin-PVP combinations (2.5% m 10%, 15% and 20% indomethacin by weight), including obtaining the adjustable parameters a0, a1 . . . a8 for each indomethacin/PVP-K30 combination. […] The values of ΔgSS at 25° C. were calculated for each drug-polymer ratio from Eq. (33), and subsequently used to calculate values of ΔgSS/f0.

[3] = Difference in specific enthalpy and specific entropy (solid solution minus unmixed components) from DSC specific heats; assay type: physicochemical; details: indomethacin 2.5% by weight with PVP-K30
Excerpt: In practice, there is a lower limit to the temperature at which thermal analysis instruments such as DSC can provide accurate experimental data. As a result, it is not possible to experimentally obtain the necessary specific heats over all temperatures down to absolute zero, but instead they only be evaluated to a minimum temperature, denoted by Tmin. The experimental data can be used to construct a temperature-dependent difference in specific heats, denoted as ΔCP, which is defined as the difference between the specific heat of the solid solution minus the specific heat of the unmixed components in the same ratio, over the temperature range of Tmin to any higher temperature T for which experimental specific heat data is available. This is given by Δ[…]) (29) Because of the thermal analysis instrument limitations, ΔCP provides no data between absolute zero and Tmin, so it is necessary to estimate the values of specific heat differences at temperatures below Tmin. One way to do this is to extrapolate the plot of the experimentally obtained ΔCP vs. the temperature from Tmin to absolute zero. This can be done as follows. • Obtain the experimental values for ΔCP from Tmin up to at least temperature Tat which the solubility of the drug in the polymer is to be evaluated. • Construct an approximating function Δc that is a function of the temperature, which will be used to estimate ΔCP at temperatures lower than Tmin. • Fit the function Δc to the experimental values of ΔCP from Tmin to T using any appropriate method, such as linear or nonlinear regression. • Using the fitted equation for Δc, calculate values of Δc over temperatures from absolute zero to Tmin. These values will be used as substitutes for experimental specific heat difference for temperatures below Tmin. There is no theoretical model or equation that dictates the mathematical form of Δc, and more than one functional form can be chosen. […] One preferred form would be a sum of a constant plus exponentials, such as Δ[…]) (30) where a0, a1 . . . a8 are temperature independent parameters with values that can be determined or fit by nonlinear regression or other methods so Eq. (30) will be a good approximation to the experimental ΔCP vs. temperature data over the experimental temperature range. […] (The value for a4 was not determined because the coefficient multiplying the exponential a3 was zero. […] Using the values Δc calculated from Eq. (34) for temperatures from 0 to […], and the experimental values of ΔCP, values of Δ[…] calculated from Eq. (31) and (32), respectively, for various temperatures. For this combination of indomethacin and PVP-K30, the calculated specific enthalpy values at -10° C. and 25° C.

COc1ccc2c(c1)c(CC(=O)O)c(C)n2C(=O)c1ccc(Cl)cc1 [indomethacin]
interaction parameter χ [1]: 0.747 | maximum stable weight fraction of indomethacin in PVP-K30 solid solution [2]: 15 % by weight | indomethacin weight fraction at minimum of ΔgSS/f0 ([2]; PVP-K30, FIG. 4): approximately 0.15 | Δhheat (calculated specific enthalpy difference) ([3]; 25° C. (298 K)): 18.347 J/g | Δsheat (calculated specific entropy difference) ([3]; 25° C. (298 K)): 0.0787 J/K/g | Δhheat (calculated specific enthalpy difference) ([3]; −10° C. (263 K)): 9.66 J/g | Δsheat (calculated specific entropy difference) ([3]; −10° C. (263 K)): 0.0479 J/K/g
